Experimental findings from PubChem BioAssay AID624286 (Southern Research Specialized Biocontainment Screening …, 2012) are described below.

The source made the active and inactive calls. How the calls were made is not given here.

For the test, the system named is VEEV TC-83 infected cells, virus titer reduction. Description: VEEV TC-83 virus titer reduction, cell-based secondary screen, inhibitor project set 3 (AID 624286). Conditions: at 5 µM; hits give low values.
`CCN1CCN(Cc2nc3ccc([N+](=O)[O-])cc3c(=O)n2-c2ccc(F)cc2)CC1`: the log virus titer change is -5.88. The result for `CN1CCN(Cc2nc3ccc([N+](=O)[O-])cc3c(=O)n2-c2ccccc2F)CC1` reads less than -7.76. Then `CCN1CCN(Cc2nc3ccc([N+](=O)[O-])cc3c(=O)n2-c2cccc(F)c2)CC1`, with less than -7.11.

Take `O=c1c2cc([N+](=O)[O-])ccc2nc(CN2CCNCC2)n1-c1ccccc1F`: the log virus titer change is less than -7.76. The result for `CCN1CCN(Cc2nc3ccc([N+](=O)[O-])cc3c(=O)n2-c2ccccc2)CC1` reads less than -7.54. Then `CCN1CCN(Cc2nc3ccc(I)cc3c(=O)n2-c2ccccc2)CC1`, with -0.33 (inactive); and `O=c1c2cc([N+](=O)[O-])ccc2nc(CN2CCCCC2)n1-c1ccccc1F`, with -0.366 (inactive); and `O=c1c2cc([N+](=O)[O-])ccc2nc(CN2CCNCC2)n1-c1ccccc1`, with less than -7.76.
